The structures appear in SMILES notation.

The record followed here is ChEMBL document CHEMBL5335779, “The research progress of SARS-CoV-2 main protease inhibitors from 2020 to 2022” (Eur J Med Chem, 2023).

Assay [1] has as its target Replicase polyprotein 1ab (Severe acute respiratory syndrome coronavirus 2, UniProt P0DTD1). As to the kind of experiment: Binding affinity to SARS-CoV-2 Main protease expressed in Escherichia coli BL21 (DE3) assessed as inhibition constant.
Assay [2] concerns Middle East respiratory syndrome-related coronavirus. As to the kind of experiment: Antiviral activity against MERS-CoV infected in Vero E6 cells assessed as reduction in viral replication measured after 48 hrs by qRT-PCR assay. Particulars: Vero C1008, 48 h. In kind it is functional, organism-based.
A short description of assay [3]: Binding affinity to MERS-CoV MPro assessed as inhibition constant. More on the design: species or system Middle East respiratory syndrome-related coronavirus.
For another assay, the system named is SARS-CoV-2. In kind it is functional, organism-based. Particulars: Severe acute respiratory syndrome coronavirus 2, Vero C1008.

`Cc1c(Cl)cc(N2CCN(C(=O)c3cc(=O)[nH]c(=O)[nH]3)CC2)cc1Cl`: the Ki in assay [1] stood at 1400 nM.

As for `O=C(NCc1cccs1)[C@@H]1CN(C(=O)CCl)CCN1c1ccc(Cl)c(Cl)c1`, in assay [2], the EC50 was 2640 nM. For the same molecule, in assay [3], the Ki came out at 180 nM. `O=C(NCc1cccs1)[C@@H]1CN(C(=O)c2cccnc2)CCN1c1ccc(Cl)c(Cl)c1`: in the assay with SARS-CoV-2, the EC50 worked out at 1100 nM.

What is called Ki is the dissociation constant of the complex between target and ligand, obtained from inhibition or displacement. Usually EC50 stands for the concentration needed to bring the measured effect to its halfway point.
